Results on 1 compound are retold here after PMC11878344 (Angewandte Chemie (International Ed. in English), 2025).

By pIC50 is commonly meant −log10 of the IC50, conventionally taken in molar units.

Test [1] relates to MAGL. Also on record: method as in PMID 35089028, PMID 34764251, PMID 34328319, PMID 29498843. The following applies: known MAGL ligands of Figure 1; cited from earlier work.
The test system of test [2] is HT-29 cells. The test is described as follows: Confocal live cell imaging of HT-29 cells. The test is classed as cell-based. Particulars: inhibitor 10 μM; probe 9 0.15 μM. An excerpt: The enzymatic activity of MAGL plays a critical role in cancer lipid metabolism and is overexpressed in several particularly aggressive cancer cell lines.[56] Therefore, the expression levels of MAGL are considered a prognostic biomarker for the degree of cancer tumor differentiation and progression.[57] Here the colon cancer HT‐29 cell line is one of the prototypical systems regarding the impact of MAGL in proliferating and invasive cancer.[45, 58, 59] We studied the ability of probes 8–12 to detect MAGL by confocal imaging microscopy (Figure 6 A). Consistent staining of MAGL could be achieved with all optimized probes 8–12 carrying NBD, BODIPY, and SiR, respectively, providing a bright and stable fluorescent signal in live cancer cells. […]
For ABPP experiments, cell lysates containing equal amounts of protein were incubated with the appropriate concentration of activity-based probe for 30 min at room temperature. […] Samples were then separated by SDS-PAGE and bands were detected ChemiDoc Imager (Bio-Rad Laboratories). […] Gels were imaged and protein bands were quantified using Image Lab software (Bio-Rad Laboratories).
Fluorescence confocal microscopy. […]
Confocal live cell image acquisition. […] The probe fluorescence was monitored by kinetic measurements of 10 min with a break for probe administration. The fluorescence of one image per sample was captured at each time point. […]

For test [3], the system named is primary hippocampal neurons. Briefly: Confocal imaging of live primary hippocampal neuron cultures. In kind it is cell-based, mouse. Particulars: inhibitor 10 μM, 2 h before labeling; p <0.01. The protocol:
MAGL plays a vital role in neuronal inflammation[24, 66, 67] and the integrity of the blood–brain barrier.[68, 69] Therefore, we investigated the imaging capability of the probes in live dissociated primary hippocampal neuron cultures (Figure 6 C) as a prime model system in CNS research, particularly in the context of its role in shaping neurotransmitter release and synaptic plasticity properties.[70] Confocal microscopic imaging of the live cultures, at day 14–21 in vitro, was performed on cells treated with probe 9 (1 μM) and the particularly bright silicon‐rhodamine (SiR) probes 10 and 12 (0.5 μM) at 37 °C for 15 min, all of them producing a strong fluorescent signal. […] We observed an accumulation of the fluorescent signal in neuronal varicosities with a distribution that is reminiscent of that of synapses, indicating the localization of MAGL.
Hippocampal Neurons Staining
Preparation of primary neuron cultures. For neuron culture, glass coverslips (19 mm, #1.5
Epredia Deckgläser, CB00190RAC20MNZ0) were coated with PLL (Sigma-Aldrich, P4707; 1:12
dilution) in phosphate-buffered saline (PBS) for 2h at 37 °C. Hippocampal neurons were then […]
microscope for a maximum of 30 min. Images were then analyzed using FIJI. […]
analysis. The protein was analyzed using a Waters H-class instrument equipped with a quaternary […]

pIC50: −log10 of the molar value.

On to `O=C(OC(CO)C(F)(F)F)N1CC2C(C1)C2c1ccn(-c2ccc(F)cc2)n1` (stereo not drawn) [PF-06795071], for which the pIC50 in test [1] was 8.52. The “Effect of pre-incubation on probe 9 fluorescent signal” value in test [2] is reported as “completely suppressed the fluorescent signal”. Besides, the “Effect of pre-incubation on MAGL probe labeling” value in test [3] is on record as “strong decrease in mean fluorescent intensity”.
